From patent US8603493B2, “Carbosilane dendrimers, preparation method thereof and use of same” (Dendrico, S.L., priority 2005, dated 2013)

Key:
ODN PPT [1] = assay: Stability of the dendriplexes at different pHs; type: physicochemical; conditions: dendriplexes with PPT, 2/1 charge ratio; for stability of dendrimer-ODN complex at the pHs tested: pHs 2.8, 2.7, 4.7, 5.7, 6.4, 7.4, 8
Protocol: Stability studies were carried out on the complexes a different pHs, to determine how the changes in pH would affect the complex, since there are different anatomic, tissue or cell localizations in which the pH acidifies or alkalinifies. Examples are stomach ambient acid, the alkali of the pancreatic secretions of the small intestine, or at a cellular level, the endosome-lisosome behaviour, where it changes from a physiological pH (7.35-7.45) to an acid pH around 4. It is interesting to know, therefore, in what pH range the DNA complex could be maintained with the different CBS used. The complexes were formed following the habitual process and volumes were added in excess of different solutions at different pHs. Therefore, for each one of dendrimers Phe, ClNH4, NN, IM8 and IM16, according to Example 31, 7 solutions were prepared of dendriplexes formed with PPT, in a 2/1 charge ratio and with the following pHs: […]; 2.7; 4.7; 5.7; 6.4; 7.4; 8: The results produced are shown in the electrophoresis gels which appear in FIG. 4, wherein the height of the normal ODN migration band is shown with arrows in the lower part of the gels. The samples were loaded from left to right following an increasing pH order. No sample was formed in the wells indicated with an X.

[2] = tested on: peripheral blood mononuclear cells (PBMC); assay: Visual examination of PBMC incubated with dendrimers; type: cell-based, human; conditions: for visual examination of PBMC: 48 hours
Protocol: The toxicity of dendrimers IM8, IM16, ClNH4, NN, Phe and the commercial controls SF (Superfect) and G4 were tested. Different quantities were taken of each one of them so that the final concentrations with which the cells were incubated were 1 μM, 5 μM, 10 μM, 20 μM and 100 μM.
The blood came from adult donors or the umbilical cord of health newborns. Said blood was diluted ½ with PBS and it was centrifuged in a Ficoll gradient. After said centrifugation, the PBMC halo was recovered and two subsequent washing-centrifuging cycles were carried out. The resulting PBMC were resuspended in complete culture medium with 10% FCS, antibiotics and glutamine.
100 μl of 10% complete medium of foetal calf serum, antibiotics and glutamine were added to a volume of 60 μl of RPMI with the corresponding dendrimer tested. 160 μl were then added to the cells seeded in 340 μl, completing a final volume of 500 μl. The cells were incubated in this way for 48 hours and then the effect of the incubation with the dendrimers was evaluated by its visual examination and by the evaluation of the mitochondrial activity.

erythrocytes = assay: Visual examination of erythrocytes (hemagglutination); type: cell-based, human
Protocol: A visual examination was carried out to detect the presence/absence of hemagglutination and quantification of haemoglobin release (haemolysis test) by spectrophotometry. ClNH4 was excluded from the dendrimers of previous Example 38, as the result had been more toxic for lymphocytes, and the results were compared with those produced for a PAMAN type generation 4 dendrimer.
The erythrocytes were obtained after being separated from the PBMC using the same Ficoll gradient cited in the previous Example. They were diluted in PBS to be able to view them individually. The cells were resuspended in 500 μl of PBS and were seeded in a 24-well plate (300,000/well). As positive control, cells treated with 0.2% Triton X-100 were used. Negative control: PBS (blank). The erythrocytes were incubated with different dendrimer concentrations. The presence of hemagglutination, number of cells and release of haemoglobin by hour were evaluated by collecting 100 μl of supernatant and measuring absorbencies by spectrophotometry using a plate reader at a wavelength of 550 nm and 690 nm as reference.

PBMC [3] = assay: Lymphoproliferative test (tritiated thymidine); type: cell-based, human; conditions: 5 days, average of triplicate
Protocol: To evaluate the antigenic capacity of CBS dendrimers, a lymphoproliferative test was performed. The experiment was prepared in triplicate in a 96-well flat bottomed plate (100,000 cells per well in 200 μl of complete human AB medium with antibiotics, glutamine and 10% AB serum). […] After 5 days of incubation at 37° C. with 5% atmosphere of CO2 100 μl of supernatant was removed, then adding 100 μL of a medium with an isotopic intercalating agent of DNA, tritiated thymidine (prepared with 10% AB medium and Thymidine 1/100). The plate was then filtered using a Harvester passing its content through a filter, which was left to dry overnight (approx. 16 hours). After this period, a sheet of Methylex® containing scintillation medium was heat-melted, and it was read in a gamma camera to evaluate the number of counts (greater the counts, more proliferation). The results, which are shown below in Table 8, are expressed as tritiated thymidine counts per minute (cpm). Each result of each concentration was performed in triplicate, the value which appears in the table being the average of the 3. The PHA and the control were tested 12 times.

PBMC [4] = assay: Staining with Trypan Blue of PBMC treated with dendriplexes or dendrimers; conditions: 72 hours, (+/−)=2/1, IM8 3.93 μM, IM16 1.99 μM, ClNH4 3.98 μM, Phe 1.96 μM, NN 3.94 μM, SF 0.68 μM, G4 100 μM, PPT 0.88 μM (0.34 μM with SF, 1 μM with G4), n = 100 cells per count
ODN PPT [5] = assay: Stability of the dendriplexes in aqueous solution in accordance with time; type: physicochemical; conditions: after 24 hours
Protocol: Different samples of dendriplexes were prepared in aqueous solution formed between the ODN PPT and dendrimers IM8, IM16 and NN at a 2/1 charge ratio according to Example 31 and electrophoresis was performed after different times since the preparation of the samples, specifically 0 hours, 6 hours and 24 hours. During those times, the dendriplexes were maintained in conditions which imitate the physiological conditions: 37° C., in 5% CO2 atmosphere. The results are shown in FIG. 5, wherein the gel of FIG. 5a corresponds to the sample of 0 hours, that of FIG. 5b to the samples after 6 hours and that of FIG. 5c to the samples after 24 hours. In the three cases, a, b and c, the samples appear in the lanes following this order: […]

Row | SMILES | stability of dendrimer-ODN complex at the pHs tested (ODN PPT [1]) | toxicity for the lymphocytes from the visual observation (comparison) [2] | visual examination of PBMC ([2]; 1 μM) | visual examination of PBMC ([2]; 5 μM) | visual examination of PBMC ([2]; 10 μM) | visual examination of PBMC ([2]; 20 μM) | visual examination of PBMC ([2]; 100 μM) | induction of hemagglutination / haemolysis (erythrocytes) | order of hemagglutination from greater to lesser (erythrocytes) | Visual examination of erythrocytes incubated with dendrimers (erythrocytes; 1 μM) | Visual examination of erythrocytes incubated with dendrimers (erythrocytes; 5 μM) | Visual examination of erythrocytes incubated with dendrimers (erythrocytes; 10 μM) | Measurement of the scintillation counter (tritiated thymidine counts) (PBMC [3]; 2 μM) | Measurement of the scintillation counter (tritiated thymidine counts) (PBMC [3]; 5 μM) | TB+ (%), cells stained with Trypan Blue (PBMC [4]) | ODN released from dendrimer (ODN PPT [5]) | Visual examination of erythrocytes incubated with dendrimers (erythrocytes; 20 μM) | pH at which the dendrimer-ODN complex is labile / dissociated (ODN PPT [1]) | biocompatibility profile, toxicity on lymphocytes and erythrocytes taken together (erythrocytes)
1 | C[N+](C)(C)CCOc1cc(CO[Si](C)(C)CCC[Si](C)(CCC[Si](CCC[Si](C)(CCC[Si](C)(C)OCc2cc(OCC[N+](C)(C)C)cc(OCC[N+](C)(C)C)c2)CCC[Si](C)(C)OCc2cc(OCC[N+](C)(C)C)cc(OCC[N+](C)(C)C)c2)(CCC[Si](C)(CCC[Si](C)(C)OCc2cc(OCC[N+](C)(C)C)cc(OCC[N+](C)(C)C)c2)CCC[Si](C)(C)OCc2cc(OCC[N+](C)(C)C)cc(OCC[N+](C)(C)C)c2)CCC[Si](C)(CCC[Si](C)(C)OCc2cc(OCC[N+](C)(C)C)cc(OCC[N+](C)(C)C)c2)CCC[Si](C)(C)OCc2cc(OCC[N+](C)(C)C)cc(OCC[N+](C)(C)C)c2)CCC[Si](C)(C)OCc2cc(OCC[N+](C)(C)C)cc(OCC[N+](C)(C)C)c2)cc(OCC[N+](C)(C)C)c1.[I-].[I-].[I-].[I-].[I-].[I-].[I-].[I-].[I-].[I-].[I-].[I-].[I-].[I-].[I-].[I-] [Phe, 2G-[Si(OCH2—(C6H3)-3,5-(OCH2CH2NMe3^+I^−)2)]8] | stable at all pHs tested | least toxic | O.K | O.K | O.K | Few cells | Isolated cells. | induces hemagglutination | G4>Phe>IM16>IM8>NN | Ag+ | Ag+++ | Ag+++ | 146 cpm | 170 cpm | 11.3% | – | – | – | –
2 | C[Si](C)(CCCN)CCC[Si](C)(CCC[Si](C)(C)CCCN)CCC[Si](CCC[Si](C)(CCC[Si](C)(C)CCCN)CCC[Si](C)(C)CCCN)(CCC[Si](C)(CCC[Si](C)(C)CCCN)CCC[Si](C)(C)CCCN)CCC[Si](C)(CCC[Si](C)(C)CCCN)CCC[Si](C)(C)CCCN.Cl.Cl.Cl.Cl.Cl.Cl.Cl.Cl [ClNH4, 2G-[Si(CH2)3NH3^+Cl^−]8] | stable at all pHs tested | – | O.K | Aggregates + | – | – | – | – | – | – | – | – | – | – | 15.7% | – | – | – | –
3 | C[N+](C)(C)CCO[Si](C)(CCC[Si](C)(CCC[Si](CCC[Si](C)(CCC[Si](C)(OCC[N+](C)(C)C)OCC[N+](C)(C)C)CCC[Si](C)(OCC[N+](C)(C)C)OCC[N+](C)(C)C)(CCC[Si](C)(CCC[Si](C)(OCC[N+](C)(C)C)OCC[N+](C)(C)C)CCC[Si](C)(OCC[N+](C)(C)C)OCC[N+](C)(C)C)CCC[Si](C)(CCC[Si](C)(OCC[N+](C)(C)C)OCC[N+](C)(C)C)CCC[Si](C)(OCC[N+](C)(C)C)OCC[N+](C)(C)C)CCC[Si](C)(OCC[N+](C)(C)C)OCC[N+](C)(C)C)OCC[N+](C)(C)C.[I-].[I-].[I-].[I-].[I-].[I-].[I-].[I-].[I-].[I-].[I-].[I-].[I-].[I-].[I-].[I-] [IM16, 2G-[Si(OCH2CH2NMe3^+I^−)2]8] | – | – | O.K | O.K | Cell aggregates + | – | – | induces agglutination | G4>Phe>IM16>IM8>NN | O.K | Ag++ | – | 175 cpm | 141 cpm | 18.5% | ~100% | No cells | – | –
4 | C[N+](C)(C)CCO[Si](C)(C)CCC[Si](C)(CCC[Si](CCC[Si](C)(CCC[Si](C)(C)OCC[N+](C)(C)C)CCC[Si](C)(C)OCC[N+](C)(C)C)(CCC[Si](C)(CCC[Si](C)(C)OCC[N+](C)(C)C)CCC[Si](C)(C)OCC[N+](C)(C)C)CCC[Si](C)(CCC[Si](C)(C)OCC[N+](C)(C)C)CCC[Si](C)(C)OCC[N+](C)(C)C)CCC[Si](C)(C)OCC[N+](C)(C)C.[I-].[I-].[I-].[I-].[I-].[I-].[I-].[I-] [IM8, 2G-[Si(OCH2CH2NMe3^+I^−)]8] | – | – | O.K | O.K | – | – | – | – | G4>Phe>IM16>IM8>NN | O.K | Ag+ | Ag+ | 144 cpm | 149 cpm | 17.1% | ~100% | No cells | < 4.7 | –
5 | CN(CCO[Si](C)(C)CCC[Si](C)(CCC[Si](CCC[Si](C)(CCC[Si](C)(C)OCCN(C)CC[N+](C)(C)C)CCC[Si](C)(C)OCCN(C)CC[N+](C)(C)C)(CCC[Si](C)(CCC[Si](C)(C)OCCN(C)CC[N+](C)(C)C)CCC[Si](C)(C)OCCN(C)CC[N+](C)(C)C)CCC[Si](C)(CCC[Si](C)(C)OCCN(C)CC[N+](C)(C)C)CCC[Si](C)(C)OCCN(C)CC[N+](C)(C)C)CCC[Si](C)(C)OCCN(C)CC[N+](C)(C)C)CC[N+](C)(C)C.[I-].[I-].[I-].[I-].[I-].[I-].[I-].[I-] [NN, 2G-[Si(O(CH2)2N(Me)(CH2)2NMe3^+I^−)]8] | – | least toxic | O.K | O.K | – | – | – | does not | G4>Phe>IM16>IM8>NN | O.K | O.K | Ag+/− | 145 cpm | 160 cpm | 10.6% | ~100% | No cells | – | better biocompatibility profiles
